In patent US12226418B2, “Dosing regimen for the treatment of PI3K related disorders” (Incyte Corporation, priority 2018, dated 2025):
pIC50: −log10 of the molar value.

Assays:
JAK1 = JAK1 (Homo sapiens (Human), UniProt P23458); test: JAK1 IC50, Assay A of U.S. Ser. No. 14/680,659 at 1 mM ATP; type: biochemical
JAK2 = JAK2 (Homo sapiens (Human), UniProt O60674); test: JAK2/JAK1 selectivity, Assay A at 1 mM ATP; type: biochemical; settings: IC50 ratio
Chain of JAK2 (O60674 828-1132): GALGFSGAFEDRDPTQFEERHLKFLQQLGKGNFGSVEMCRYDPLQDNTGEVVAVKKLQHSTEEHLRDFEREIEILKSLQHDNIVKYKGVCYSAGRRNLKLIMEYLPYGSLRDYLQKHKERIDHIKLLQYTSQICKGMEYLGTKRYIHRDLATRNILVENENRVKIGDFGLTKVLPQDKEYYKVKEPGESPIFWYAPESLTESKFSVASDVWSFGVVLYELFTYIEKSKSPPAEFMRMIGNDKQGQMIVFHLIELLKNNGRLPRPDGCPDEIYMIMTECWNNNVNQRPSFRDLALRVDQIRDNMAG

Chain of JAK1 (P23458 837-1142): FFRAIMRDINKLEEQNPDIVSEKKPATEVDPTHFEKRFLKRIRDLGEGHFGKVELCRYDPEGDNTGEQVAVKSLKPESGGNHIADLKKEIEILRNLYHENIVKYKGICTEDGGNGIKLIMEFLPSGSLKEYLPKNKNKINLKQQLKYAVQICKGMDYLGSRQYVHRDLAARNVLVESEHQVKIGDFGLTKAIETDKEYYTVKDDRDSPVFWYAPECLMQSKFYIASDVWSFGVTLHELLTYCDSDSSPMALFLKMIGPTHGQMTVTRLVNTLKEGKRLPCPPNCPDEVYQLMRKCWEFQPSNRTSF

SMILES	pIC50 (JAK1)	JAK2/ JAK1 (JAK2)
C[C@@H](O)c1nc2cnc3ccsc3c2n1[C@H]1CC[C@H](CC#N)OC1 [Example 1, ((2R,5S)-5-{2-[(1R)-1-hydroxyethyl]-1H-imidazo[4,5-d]thieno[3,2-b]pyridin-1-yl}tetrahydro-2H-pyran-2-yl)acetonitrile]	> 7.00	>10
N#CCC(C1CCN(c2cccc(Cl)n2)C1)n1cc(-c2ncnc3[nH]ccc23)cn1 (centres unmarked) [Example 3, 3-[1-(6-chloropyridin-2-yl)pyrrolidin-3-yl]-3-[4-(7H-pyrrolo[2,3-d]pyrimidin-4-yl)-1H-pyrazol-1-yl]propanenitrile]	> 8.00	>10
N#CCC(C1CCN(c2nc3cccnc3o2)C1)n1cc(-c2ncnc3[nH]ccc23)cn1 (centres unmarked) [Example 4, 3-(1-[1,3]oxazolo[5,4-b]pyridin-2-ylpyrrolidin-3-yl)-3-[4-(7H-pyrrolo[2,3-d]pyrimidin-4-yl)-1H-pyrazol-1-yl]propanenitrile]	> 8.00	>10
N#CCC(CN1CCN(C(=O)c2ccc(C#N)cc2F)CC1)n1cc(-c2ncnc3[nH]ccc23)cn1 (centres unmarked) [Example 5, 4-[(4-{3-cyano-2-[4-(7H-pyrrolo[2,3-d]pyrimidin-4-yl)-1H-pyrazol-1-yl]propyl}piperazin-1-yl)carbonyl]-3-fluorobenzonitrile]	> 8.00	>10
N#CCC(CN1CCN(C(=O)c2ccc(C#N)cc2F)CC1)n1ccc(-c2ncnc3[nH]ccc23)c1 (centres unmarked) [Example 6, 4-[(4-{3-cyano-2-[3-(7H-pyrrolo[2,3-d]pyrimidin-4-yl)-1H-pyrrol-1-yl]propyl}piperazin-1-yl)carbonyl]-3-fluorobenzonitrile]	> 8.00	>10
N#CCC1(n2cc(-c3ncnc4[nH]ccc34)cn2)CN(C2CCN(C(=O)c3ccnc(C(F)(F)F)c3F)CC2)C1 [Example 7]	> 8.00	>10
N#CCC1(n2cc(-c3ncnc4[nH]ccc34)cn2)CN(C2CCN(C(=O)Nc3ccc(F)cc3C(F)(F)F)CC2)C1 [Example 8]	> 8.00	>10
N#CCC1(n2cc(-c3ncnc4[nH]ccc34)cn2)CN(C2CCN(C(=O)c3ccnc(C(F)(F)F)n3)CC2)C1 [Example 9, [3-[4-(7H-pyrrolo[2,3-d]pyrimidin-4-yl)-1H-pyrazol-1-yl]-1-(1-{[2-(trifluoromethyl)pyrimidin-4-yl]carbonyl}piperidin-4-yl)azetidin-3-yl]acetonitrile]	> 8.00	>10
N#CC[C@]1(n2cc(-c3ncnc4[nH]ccc34)cn2)C[C@H](N2CCN(C(=O)c3ccnc(C(F)(F)F)n3)CC2)C1 [Example 10]	> 8.00	>10
N#CC[C@]1(n2cc(-c3ncnc4[nH]ccc34)cn2)C[C@H](N2CCC(Oc3cc(CN4CC(O)C4)cc(C(F)(F)F)n3)CC2)C1 [Example 11]	> 8.00	>10
N#CC[C@]1(n2cc(-c3ncnc4[nH]ccc34)cn2)C[C@H](N2CCC(Oc3cc(CN4CCC[C@H]4CO)cc(C(F)(F)F)n3)CC2)C1 [Example 12]	> 8.00	>10
N#CC[C@]1(n2cc(-c3ncnc4[nH]ccc34)cn2)C[C@H](N2CCC(Oc3cc(CN4CCC[C@@H]4CO)cc(C(F)(F)F)n3)CC2)C1 [Example 13]	> 8.00	>10
C[C@H](NC(=O)c1cc(F)c(N2CC(CC#N)(n3cc(-c4ncnc5[nH]ccc45)cn3)C2)cc1F)C(F)(F)F [Example 16, 4-{3-(cyanomethyl)-3-[4-(7H-pyrrolo[2,3-d]pyrimidin-4-yl)-1H-pyrazol-1-yl]azetidin-1-yl}-2,5-difluoro-N-[(1S)-2,2,2-trifluoro-1-methylethyl]benzamide]	> 8.00	>10
